The values below come from EP4678638A1, “NEW E3 UBIQUITIN LIGASE LIGAND, PROTEIN DEGRADATION AGENT AND USE THEREOF” (priority 2023, dated 2024).

Molecules are shown by their SMILES. Like-named read-outs stand apart in the source and are kept apart here.

Assay [1] has as its system SW620. Nature of the assay: CCK-8 proliferation, SW620. It is filed as cell-based. The note with it: Homo sapiens, SW-620; CCK-8; 96 hours; read-out: Inhibitory activity (IC50) on tumor cell proliferation, SW620. A digest of the protocol:
(§1)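 Tumor cells were cultured at 37°C with 5% CO2, seeded, and after 24h treated with compounds at 10 concentrations starting at 10µM (5-fold serial dilutions).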

The subject of assay [2] is LNcap. Nature of the assay: CCK-8 proliferation, LNcap. The conditions noted are these: Homo sapiens. It counts as cell-based. Here is the method: (§2) The tumor cells used herein were cultured in a cell culture medium listed in table A1 at 37°C in an incubator with 5% CO2. Prior to experimentation, all cell lines used were correctly identified by STR profiling, and tested negative for mycoplasma contamination using a mycoplasma detection kit through routine screenings. Table A1. Tumor cells and cell culture medium used in the present disclosure
(§3) IC50 values of the compounds of the present disclosure (including the compounds in Table 1, and compounds of examples) were measured using the Meilun Cell Counting Kit-8 kit from Dalian Meilun Biotech Co., Ltd. Assay details are as follows: tumor cells were seeded in a 96-well plate at a density listed in Table A2. After 24h, 100 µL of the inoculated cells were treated with 0.5µL of the compounds of the present disclosure (including the compounds in Tables 1 and 2, and compounds of examples) at 10 different successively decreasing concentrations (starting at the highest concentration of 10µM; 5-fold serial dilutions). After the cells were treated with the compounds of the present disclosure for a period of time, the cell viability detection reagent was added to the culture medium for cell viability assessment according to the instructions provided with the CCK-8 kit. […] The growth inhibition of the compounds of the present disclosure on cells was plotted by Prism Graphpad software, and the IC50 values of the compounds of the present disclosure were calculated therefrom. […] Seeding protocol and treatment time for tumor cells

The test system of assay [3] is CCRF-CEM. Nature of the assay: CCK-8 proliferation, CCRF-CEM. It counts as cell-based, Human. The conditions noted are these: Homo sapiens; Table B10, compounds designed based on the IRAK4 inhibitors; CCRF-CEM cells; read-out: Inhibitory activity (IC50, nM) on tumor cell proliferation, CCRF-CEM. A digest of the protocol: as §1
Assay [4] relates to SR. Kind of assay: CCK-8 proliferation, SR. It is filed as cell-based, Human. The conditions noted are these: Table B10, compounds designed based on the IRAK4 inhibitors, SR cells, read-out: Inhibitory activity (IC50, nM) on tumor cell proliferation, SR. A digest of the protocol:
as §1

The test system of assay [5] is MV-4-11. Kind of assay: CCK-8 proliferation, MV-4-11. The conditions noted are these: Homo sapiens, MV4-11; Table B10, compounds designed based on the IRAK4 inhibitors; MV-4-11 cells; read-out: Inhibitory activity (IC50, nM) on tumor cell proliferation, MV-4-11. It is filed as cell-based, Human. In short, it runs like this: as §1
The subject of assay [6] is Jurkat. Nature of the assay: CCK-8 proliferation, Jurkat. The note with it: Table B10, compounds designed based on the IRAK4 inhibitors, Jurkat cells, read-out: Inhibitory activity (IC50, nM) on tumor cell proliferation, Jurkat. It is filed as cell-based, Human. In short, it runs like this:
as §1

For assay [7], the target named is T1, IRAK4 (Homo sapiens, UniProt Q9NWZ3).
T1 construct: evaluate the effects of the compounds of the present disclosure on the expression of target proteins in cells; endogenous in cells; host or cells: hPBMC
T1 sequence (Q9NWZ3 1-460): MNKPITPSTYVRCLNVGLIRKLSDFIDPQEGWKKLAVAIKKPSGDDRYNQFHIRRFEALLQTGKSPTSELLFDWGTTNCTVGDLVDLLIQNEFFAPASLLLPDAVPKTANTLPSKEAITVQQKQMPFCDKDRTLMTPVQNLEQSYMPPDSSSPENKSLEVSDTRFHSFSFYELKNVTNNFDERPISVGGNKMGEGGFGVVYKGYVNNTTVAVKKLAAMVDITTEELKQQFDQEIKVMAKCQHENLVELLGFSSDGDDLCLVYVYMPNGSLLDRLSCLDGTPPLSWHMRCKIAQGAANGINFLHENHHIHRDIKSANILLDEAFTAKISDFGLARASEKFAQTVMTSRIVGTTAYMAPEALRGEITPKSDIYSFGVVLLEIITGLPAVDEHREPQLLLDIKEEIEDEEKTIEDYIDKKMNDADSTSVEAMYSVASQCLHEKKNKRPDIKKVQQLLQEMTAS
Kind of assay: Western blot degradation of IRAK4 (hPBMC). It is filed as cell-based. The conditions noted are these: Table D1. In short, it runs like this:
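After compound exposure, cells were harvested and lysates run on SDS-PAGE, transferred to nitrocellulose and probed with antibodies. Remaining target (%) was computed from band grayscale relative to an internal control protein and normalised; degradation (%) was 100% minus that.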
For orientation: Immunoblotting shows a protein as a band on a membrane.

For assay [8], the system named is MM.1S. Nature of the assay: CCK-8 proliferation, MM.1S. It is filed as cell-based. The note with it: Table B10, compounds designed based on the IRAK4 inhibitors, MM.1S cells, read-out: Inhibitory activity (IC50, nM) on tumor cell proliferation, MM.1S. In short, it runs like this: as §1
Assay [9] has as its system H1299. Kind of assay: CCK-8 proliferation, H1299. Further details: species or system Human. The conditions noted are these: Table B10, compounds designed based on the IRAK4 inhibitors, H1299 cells, read-out: Inhibitory activity (IC50, nM) on tumor cell proliferation, H1299. Here is the method:
as §2, §3

Assay [10] has as its system MGC-803. Kind of assay: CCK-8 proliferation, MGC-803 (heads: MGC80-3, MGC803). It is filed as cell-based, Human. The note with it: Table B10, compounds designed based on the IRAK4 inhibitors, MGC803 cells, read-out: Inhibitory activity (IC50, nM) on tumor cell proliferation, MGC803. Here is the method: as §2, §3
Assay [11] relates to DU-145. Kind of assay: CCK-8 proliferation, DU-145. It is filed as cell-based. The conditions noted are these: Homo sapiens, 96 hours, read-out: Inhibitory activity (IC50) on tumor cell proliferation, DU-145. Here is the method: as §2, §3
Setting [12] is: Table B10, compounds designed based on the IRAK4 inhibitors, Lncap cells, read-out: Inhibitory activity (IC50, nM) on tumor cell proliferation, Lncap.

As to `CN(Cc1ccc(C2CCC(=O)NC2=O)c(F)c1)C1CCN(c2ncc(C(=O)Nc3ccc(OC(F)(F)Cl)cc3)cc2-c2cc[nH]n2)CC1` (centres unmarked) [GT-04027, N-(4-(chlorodifluoromethoxy)phenyl)-6-(4-((4-(2,6-dioxopiperidin-3-yl)-3-fluorobenzyl)(methyl)amino)piperidin-1-yl)-5-(1H-pyrazol-3-yl)nicotinamide], the IC50 in assay [1] was in the range of 100 to 500 nM; in assay [2] (LNCaP, CCK-8, 96 hours, read-out: Inhibitory activity (IC50) on tumor cell proliferation, Lncap), 100 to 500 nM.

As to `CC(C)Nc1cc(-n2ccc3cc(C#N)cnc32)ncc1C(=O)NC1CCN(Cc2ccc(C3CCC(=O)NC3=O)cc2)CC1` (centres unmarked) [GT-04042, 6-(5-cyano-1H-pyrrolo[2,3-b]pyridin-1-yl)-N-(1-(4-(2,6-dioxopiperidin-3-yl)benzyl)piperidin-4-yl)-4-(isopropylamino)nicotinamide], the IC50 in assay [3], in assay [4] (Homo sapiens), in assay [5], in assay [6] (Homo sapiens) and in [2] (setting [12]) was 500 to 1000 nM each time.

`CC(C)Nc1cc(-n2ccc3cc(C#N)cnc32)ncc1C(=O)NC1CCN(Cc2ccc(C3CCC(=O)NC3=O)c(F)c2)CC1` (centres unmarked) [GT-04043, 6-(5-cyano-1H-pyrrolo[2,3-b]pyridin-1-yl)-N-(1-(4-(2,6-dioxopiperidin-3-yl)-3-fluorobenzyl)piperidin-4-yl)-4-(isopropylamino)nicotinamide]: the IC50 fell in the range of 500 to 1000 nM in assay [3]; 500 to 1000 nM in assay [4] (Homo sapiens); 500 to 1000 nM in assay [5]; 100 to 500 nM in assay [6] (Homo sapiens); 500 to 1000 nM in [2] (setting [12]).

As for `O=C1CCC(c2ccc(CN3CCC(n4cc(NC(=O)c5coc(-c6ccnc(NCC7CC7)c6)n5)c(C(F)F)n4)CC3)cc2)C(=O)N1` (centres unmarked) [GT-04175, 2-(2-((cyclopropylmethyl)amino)pyridin-4-yl)-N-(3-(difluoromethyl)-1-(1-(4-(2,6-dioxopiperidin-3-yl)benzyl)piperidin-4-yl)-1H-pyrazol-4-yl)oxazole-4-carboxamide], the IC50 in [3] is 500 to 1000 nM; in assay [5], 500 to 1000 nM; in assay [6] (Homo sapiens) it was 100 to 500 nM; in [2] (setting [12]), 100 to 500 nM. Besides, the “Degradation of substrate protein IRAK4 (substrate protein remaining %)” value (shortened to “Degradation … (substrate protein remaining %)”) in assay [7] is listed as “A (A is defined as 0% ≤ substrate protein remaining % ≤ 80%)”.

`O=C1CCC(c2ccc(CN3CCN(c4ccc(-n5cc(NC(=O)c6coc(-c7ccnc(NCC(F)(F)F)c7)n6)c(C(F)F)n5)cc4)CC3)cc2F)C(=O)N1` (centres unmarked) [GT-04274, N-(3-(difluoromethyl)-1-(4-(4-(4-(2,6-dioxopiperidin-3-yl)-3-fluorobenzyl)piperazin-1-yl)phenyl)-1H-pyrazol-4-yl)-2-(2-((2,2,2-trifluoroethyl)amino)pyridin-4-yl)oxazole-4-carboxamide]: the IC50 in assay [3] fell in the range of 500 to 1000 nM; in assay [6] (Homo sapiens) it was 500 to 1000 nM; in assay [2] (setting [12]) it was 100 to 500 nM; in assay [8] (Homo sapiens, MM1.S) it was 100 to 500 nM. In addition, in [7], the “Degradation … (substrate protein remaining %)” value is on record as “A (A is defined as 0% ≤ substrate protein remaining % ≤ 80%)”.

`O=C1CCN(c2ccc(CN3CCC(n4cc(NC(=O)c5coc(-c6ccnc(NCC7CC7)c6)n5)c(C(F)F)n4)CC3)cn2)C(=O)N1` [GT-04959, 2-(2-((cyclopropylmethyl)amino)pyridin-4-yl)-N-(3-(difluoromethyl)-1-(1-((6-(2,4-dioxotetrahydropyrimidin-1(2H)-yl)pyridin-3-yl)methyl)piperidin-4-yl)-1H-pyrazol-4-yl)oxazole-4-carboxamide]: the IC50 in [9] (Homo sapiens, NCI-H1299) fell in the range of 500 to 1000 nM; in assay [8] (Homo sapiens, MM1.S) it was 500 to 1000 nM.

Take `O=C1CCN(c2cccc(CN3CCN(c4ccc(-n5cc(NC(=O)c6coc(-c7ccnc(NCC8CC8)c7)n6)c(C(F)F)n5)cc4)CC3)c2)C(=O)N1` [GT-04968, 2-(2-((cyclopropylmethyl)amino)pyridin-4-yl)-N-(3-(difluoromethyl)-1-(4-(4-(3-(2,4-dioxotetrahydropyrimidin-1(2H)-yl)benzyl)piperazin-1-yl)phenyl)-1H-pyrazol-4-yl)oxazole-4-carboxamide]: the IC50 in [4] (Homo sapiens) is 100 to 500 nM; in [10] (Homo sapiens, MGC-803), 100 to 500 nM; in [6] (Homo sapiens), 100 to 500 nM; in assay [9] (Homo sapiens, NCI-H1299), 100 to 500 nM; in assay [8] (Homo sapiens, MM1.S) it was 10 to 50 nM. The “Degradation … (substrate protein remaining %)” value in assay [7] was “A (A is defined as 0% ≤ substrate protein remaining % ≤ 80%)”.

Consider `O=C1CCN(c2ccc(CN3CCN(c4ccc5c(c4)nc(NC(=O)c4cccc(C(F)(F)F)c4)n5[C@H]4CC[C@@H](CO)CC4)CC3)cn2)C(=O)N1` [GT-04987, N-(5-(4-((6-(2,4-dioxotetrahydropyrimidin-1(2H)-yl)pyridin-3-yl)methyl)piperazin-1-yl)-1-((1s,4s)-4-(hydroxymethyl)cyclohexyl) -1H-benzo[d]imidazol-2-yl)-3-(trifluoromethyl)benzamide], for which the IC50 in assay [4], in [10], in [6], in assay [9] and in [8] was 100 to 500 nM throughout.

For `O=C1CCN(c2ccc(COc3ccc(Cl)cc3-c3nc4cc(C(F)(F)F)cc(Cl)c4[nH]3)cc2)C(=O)N1` [GT-06479, 1-(4-((4-chloro-2-(7-chloro-5-(trifluoromethyl)-1H-benzo[d]imidazol-2-yl)phenoxy)methyl)phenyl)dihydropyrimidine-2,4(1H,3H)-dione], the IC50 in assay [11] lay in the range of 100 to 500 nM.

Regarding `O=C1CCN(c2cccc(COc3ccc(Cl)cc3-c3nc4cc(C(F)(F)F)cc(Cl)c4[nH]3)c2)C(=O)N1` [GT-06480, 1-(3-((4-chloro-2-(7-chloro-5-(trifluoromethyl)-1H-benzo[d]imidazol-2-yl)phenoxy)methyl)phenyl)dihydropyrimidine-2,4(1H,3H)-dione], in assay [11], the IC50 was 100 to 500 nM.

For the compound `O=C1CCN(c2ccc(COc3ccc(Cl)cc3-c3nc4cc(C(F)(F)F)cc(Cl)c4[nH]3)cn2)C(=O)N1` [GT-06481, 1-(5-((4-chloro-2-(7-chloro-5-(trifluoromethyl)-1H-benzo[d]imidazol-2-yl)phenoxy)methyl)pyridin-2-yl)dihydropyrimidine-2,4(1H,3H)-dione], in [11], the IC50 was 50 to 100 nM.
